According to patent US7700111B2, “Auditory nerve protection and re-growth” (The Regents of the University of Michigan, priority 2002, dated 2010):
Entries after “also recorded” stand apart in the source; their conditions may differ.

Legend:
Type in all cases: in vivo, guinea pig
[1] = system: outer and inner hair cells; assay: Hair cell count (cytocochleogram) after noise exposure; conditions: for inner hair cell loss / outer hair cell loss: region 9-13 mm from apex, 10 days after noise, versus 0.9% NaCl; for hair cell loss: hair cell type not specified
Experimental: (§1) Each animal received a drug dose before either being noise-exposed for 5 hours or simply placed in the exposure chamber for 5 hours. Auditory brain stem responses (ABR) were measured 2 days before and 10 days after noise exposure or sham exposure. Immediately after the second ABR measurement, animals were sacrificed for histological examination or for measurement of 8-isoprostane.
(§2) Animals were assigned to one of 17 groups (see Table 3). Eight groups were used to assess the effects of these agents on noise-induced threshold (auditory brain stem response, ABR) sensitivity and hair cell damage (cytocochleogram). Nine groups were used to determine the effects on noise-induced lipid peroxidation. Groups were injected intraperitoneally with 5 ml/kg of 0.9% NaCl, 0.2 mg/ml (+)-MK-801, 0.2 mg/ml (−)-MK-801, 0.2 mg/ml L-NAME, 100 mg/ml NAC, or a mixture of 0.2 mg/ml (+)-MK-801 and 100 mg/ml NAC 30 min before being placed in the exposure chamber. Because of the high clearance of PD 174494, one group of animals received 5 ml/kg of 2 mg/ml PD 174494 intraperitoneally 30 min before and 2 hr into noise exposure. A control group received 5 ml/kg of 0.9% NaCl on the same time schedule.
(§3) Animals were exposed to noise in a lighted and ventilated sound exposure chamber while having free access to food and water. The sound chamber was fitted with speakers driven by a noise generator and a power amplifier. Using a ½-inch Brūel and Kjaer condenser microphone and Fast Fourier Transform analyzer, sound levels were measured and calibrated at multiple locations within the sound chamber to ensure uniformity of the stimulus. The stimulus intensity varied by a maximum of 3 dB across measured sites within the exposure chamber. Animals were individually subjected to 4 kHz octave band noise, 115 dB SPL for 5 hours. Two hours after initiation, noise exposure was interrupted for 10 min to perform the second injection of 0.9% NaCl or PD 174494 in groups requiring it.
Animals were sacrificed under deep anesthesia. The bullae were quickly removed and transferred into 4% paraformaldehyde in 0.01 M phosphate-buffered saline (PBS)(pH 7.4). The bone near the apex, round window, and oval window was opened, followed by two gentle local perfusions from the apex with 1 ml of 4% paraformaldehyde each. The tissue was kept in the fixative for 12 hr. After removal of the bony capsule and the lateral wall tissues, the modiolar core including the organ of Corti was removed from the temporal bone. Following permeabilization with 0.3% Triton X-100 for 10 min, whole-mounts of the organ of Corti were stained for actin with fluorescent phalloidin for 30 min to outline hair cells and their stereocilia for a quantitative assessment (Raphael and Altschuler, Hear. Res., 31:173 [1991]). Slide preparations were observed under fluorescence microscopy and missing (as shown by scar formation) and present (as shown by intact stereocilia) hair cells in the sensory epithelium were counted from the apex to the base in 0.19 mm segments. Percent hair cell loss was calculated for each segment. A group mean cytocochleogram was created by averaging the loss at each segment. Differences were evaluated for statistical significance on the basis of data from the region 9-13 mm from apex, the region of greatest damage in a previous study (Ohinata et al., Hear. Res. 146: 28 [2000]).

8-isoprostane = assay: Cochlear 8-isoprostane (lipid peroxidation) by enzyme immunoassay after noise exposure; conditions: for 8-isoprostane level in the lateral wall / 8-isoprostane level in the modiolar core / 8-isoprostane level in the organ of Corti: after noise exposure, versus 0.9% NaCl
Experimental: as §1, §2, §3
Animals were anesthetized with xylazine (10 mg/kg) and ketamine (40 mg/kg) given intramuscularly and decapitated. The auditory bullae were removed and the bony capsule of the cochlea was immediately opened.
Guinea pig cochleae were dissected in ice-cold Hanks' balanced salt solution (HBSS, Gibco Laboratories, Grand Island, N.Y.: 1.25 mM CaCl2, 5.55 mM glucose, 0.81 mM MgSO4, 0.44 mM KH2PO4, 136.9 mM NaCl, 0.34 mM Na2HPO4, 5.4 mM KCl, 5.0 mM sodium HEPES, with pH titrated to 7.4 (with NaOH) and osmolality adjusted to 300±1 mOsm with NaCl). Lateral wall tissues (spiral ligament and stria vascularis) and organ of Corti were removed from the modiolar core. The tissues were transferred to a 0.05% dl-dithiothreitol solution to prevent auto-oxidation of arachidonic acid and homogenized with a homogenizer for 30 sec. The homogenate was centrifuged at 7,200×g for 15 min at 4° C. Proteins were measured in aliquots of the supernatant by the Bradford method (Bradford, Anal. Biochem. 72: 248 [1976]). Butyl hydroxytoluene was added to the supernatant to a concentration of 0.1%, followed by 200 μl of ethanol and another homogenization. The homogenate was centrifuged at 1,500×g for 10 min at 4° C. Two hundred μl of 15% KOH was added to the supernatant for determination of the levels of free and esterified 8-isoprostane, and the mixture was incubated at 40° C. for 1 hr. The solution was then acidified to pH 3 with HCl. The samples were applied to octadecylsilyl silica columns pre-activated with methanol and distilled water and subsequently washed with distilled water and then with hexane. 8-isoprostane was eluted with ethyl acetate containing 1% methanol, and the eluate was evaporated under N2 to dryness. The samples were dissolved in 30 μl of acetone and spotted on silica gel G thin layer chromatography plates, which were developed in chloroform/methanol/acetic acid/water (80:18:1:0.8, v/v). 8-isoprostane was located from the Rf of standards run on the same plate and visualized by spraying with 3.5% phosphomolybdic acid. […]

[2] = Noise-induced permanent ABR threshold shift; conditions: 10 days after 4 kHz octave band noise, 115 dB SPL, 5 hours; 2, 4, 8, 16, 20 kHz; drug i.p. 30 min before noise; versus 0.9% NaCl
Experimental: as §1, §2
Animals were anesthetized with xylazine (10 mg/kg) and ketamine (40 mg/kg) given intramuscularly. A differential active needle electrode was placed subcutaneously below the test ear and a reference electrode at the vertex. A ground electrode was positioned below the contralateral ear. The sound stimuli consisted of 15 ms tone bursts, with a rise-fall time of 1 ms at frequencies of 2, 4, 8, 16 and 20 kHz, and were generated using a Fordham Audio Generator (Model AG-298, Fordham Radio Supply, Hauppauge N.Y.). They were presented to the right external auditory meatus in a closed acoustic system through an ear bar connected to a transducer (Beyer DT-48, Beyer Dynamic, Farmingdale N.Y.). The sound intensity was varied by 5 dB intervals. One thousand twenty-four tone presentations given at the rate of 9 s^−1 were averaged using a microcomputer and custom software to obtain a waveform. Hearing threshold was defined by the consistent appearance of ABR peaks III or IV. Test/retest reliability was within 5 dB. After the second ABR measurement, the cochleae were harvested.
as §3, with “Animals were individually subjected to 4 kHz octave band noise, 115 dB SPL for 5 hours. Two hours after initiation, noise exposure was interrupted for 10 min to perform the second injection of 0.9% NaCl or PD 174494 in groups requiring it.” left out

cochlear vasculature [3] = assay: Cochlear blood flow (laser Doppler), blood pressure and vascular conductance after 8-iso-PGF2a / SQ29,548 infusion; conditions: for blood pressure (BP) response / cochlear blood flow (CBF) response: after administration, dose series; for cochlear vascular conductance (VC = CBF/BP) response: intravenous infusion
Experimental: (§4) The infusion rate was controlled by a syringe pump. Systemic infusions were achieved via a cannula inserted in the right jugular vein. Changes in cochlear blood flow (CBF) were measured with the fine probe of a laser Doppler flowmeter (LDF) placed on the bony surface of the cochlea. Arterial blood pressure (BP) and heart rate were monitored from a cannula in the right carotid artery. BP and CBF were continuously recorded, as was their ratio (CBF/BP) as a derived measure of cochlear vascular […] (VC). The results are shown if FIGS. 10-18.

cochlear vasculature [4] = assay: Noise-induced cochlear vasoconstriction (120 dB, one hour); conditions: given intraperitoneally 1 hour before noise exposure
Experimental: as §4
Three guinea pigs were exposed to high intensity (120 dB) noise for one hour (6×10 min, red lines in top panel). BP, CBF, and VC measurements were made during 2-min off-noise periods. Over the course of the exposure, there was pronounced vasoconstriction (VC) and decrease in cochlear blood flow (CBF), while BP remained stable (mean±SD).
Noise exposure was as in FIG. 15. However, when the antioxidant glutathione-monoethyl ester (GSHE) was given intraperitoneally 1 hour before noise exposure, the effect of noise on CBF and VC was eliminated.

[5] = AICA infusion of ~25 μg/kg over 2 min, minimal BP change

| Compound | inner hair cell loss [1] | outer hair cell loss [1] | 8-isoprostane level in the lateral wall (8-isoprostane) | 8-isoprostane level in the modiolar core (8-isoprostane) | 8-isoprostane level in the organ of Corti (8-isoprostane) | hair cell loss [1] | noise-induced ABR threshold shift [2] | also measured |
| --- | --- | --- | --- | --- | --- | --- | --- | --- |
| (−)-MK-801 | not affected | decreased | did not affect | did not affect | did not affect |  |  |  |
| (+)-MK-801 | attenuated; also recorded: some protective effect | attenuated | did not influence | attenuated | attenuated | successful in preventing hair cell loss | significantly attenuated threshold shifts at all frequencies; also recorded: decreased threshold shift |  |
| CC(=O)N[C@@H](CS)C(=O)O [NAC, N-acetylcysteine] | attenuated; also recorded: some protective effect | attenuated | attenuated | attenuated | attenuated | successful in preventing hair cell loss | significantly attenuated threshold shifts at all frequencies |  |
| CCCCC[C@H](O)/C=C/[C@@H]1[C@H](C/C=C\CCCC(=O)O)[C@@H](O)C[C@H]1O [8-iso-PGF2a, 8-iso-prostaglandin F2a] |  |  |  |  |  |  |  | BP during AICA infusion (cochlear vasculature [3]; 2 min AICA infusion, some of the subjects): no significant elevation in BP; decrease in CBF (cochlear vasculature [3]; [5]): 25-30%; decrease in VC (cochlear vasculature [3]; [5]): 25-30%; blood pressure (BP) response (cochlear vasculature [3]): increasing response; cochlear blood flow (CBF) response (cochlear vasculature [3]): increasing response; blood pressure (BP) response (cochlear vasculature [3]; listed as 8-isoPGF2a): rapid and concentration-dependent change; cochlear blood flow (CBF) response (cochlear vasculature [3]; listed as 8-isoPGF2a): rapid and concentration-dependent change; cochlear vascular conductance (VC = CBF/BP) response (cochlear vasculature [3]): dose-dependent constriction of the cochlear vasculature; also recorded: Strong concentration-dependent decrease; also recorded: clear dose-dependent decrease; cochlear vascular conductance (VC = CBF/BP) response (cochlear vasculature [3]; listed as 8-isoPGF2a): strong dose-dependent decrease; dose at which the VC decrease approaches saturation (cochlear vasculature [3]; intravenous, mean maximum VC response 1.5-2.5 min after infusion initiation): approximately 30 mg/kg; BP, CBF and VC response to AICA infusion (cochlear vasculature [3]; sequential 1.25 min infusions via AICA, or 2 min AICA infusion): no significant response to the lower two doses; also recorded: dose-dependent constriction of the cochlear vasculature; also recorded: local vasoconstrictive response |
| Cc1ccc(CC2(O)CCN(CCOc3ccc(O)cc3)CC2)cc1 [PD 174494] | protected only inner hair cells | protected only inner hair cells | did not influence | suppressed | suppressed; also recorded: less with PD 174494 than with the other treatments |  | significantly attenuated noise-induced hearing loss at 2, 4 and 8 kHz; also recorded: decreased threshold shift | inner hair cell loss ([1]; listed as PD 174474): some protective effect; effect on 8-isoprostane formation relative to that of (+)-MK-801 (8-isoprostane; organ of Corti and modiolar core): about half |
| O=C(O)CCC/C=C\C[C@@H]1[C@H](CNNC(=O)Nc2ccccc2)[C@H]2CC[C@@H]1O2 [SQ29,548] |  |  |  |  |  |  |  | decrease in cochlear vascular constriction (cochlear vasculature [3]; 35 mg/kg 8-iso-PGF2a i.v. before and after AICA infusion of antagonist, two subjects): 12%; effect on vasoconstriction (VC) by isoPGF2a (cochlear vasculature [3]; addition of the antagonist): blocked; maximum mean VC value during SQ29,548 infusion, less than after the initial 8-iso-PGF2a infusion (cochlear vasculature [3]; continuous AICA infusion of antagonist, 8-iso-PGF2a about 75-95 mg/kg i.v. over 20 sec, three subjects): 8-10% |
| CCOC(=O)CNC(=O)[C@H](CS)NC(=O)CC[C@H](N)C(=O)O [GSHE, glutathione-monoethyl ester] |  |  |  |  |  |  |  | effect of noise on CBF (cochlear vasculature [4]): eliminated; effect of noise on VC (cochlear vasculature [4]): eliminated |
| COC(=O)[C@@H](N)CCCNC(=N)N[N+](=O)[O-] [L-NAME, L-N^ω-Nitroarginine methyl ester] | increased | not affected | suppressed; also recorded: decreased 8-isoprostane level | suppressed | decreased 8-isoprostane level in the organ of Corti | had no effect | significantly attenuated at 2 kHz; also recorded: increased at 20 kHz; also recorded: not threshold shift |  |
